The values below are quoted from earlier work in patent US10076496B2, “Engineering of polymer-stabilized nanoparticles for drugs with Log P values below 6 by controlled antisolvent precipitation” (THE CHINESE UNIVERSITY OF HONG KONG, priority 2011, dated 2018).

Consider `CC(=O)O[C@H]1C(=O)[C@@]2(C)[C@H]([C@H](OC(=O)c3ccccc3)[C@]3(O)C[C@H](OC(=O)[C@H](O)[C@@H](NC(=O)c4ccccc4)c4ccccc4)C(C)=C1C3(C)C)[C@]1(OC(C)=O)CO[C@@H]1C[C@@H]2O` [paclitaxel], for which the Log P (in general, the decadic logarithm of the partition coefficient of the neutral form, usually between octanol and water) was 7.38.
